Assay results as given in patent publication US20230159496A1, “COMPOUNDS AND METHODS FOR MODULATING SPLICING” (REMIX THERAPEUTICS INC., priority 2020, published 2023).
Read-outs that look alike come from different tables or passages of the source.

Assays:
Format in all cases: cell-based
SMN2 CJ mRNA = assay: Gene panel canonical junction qPCR assay, SMN2; conditions: decrease in CJ mRNA levels, gene panel; read-out: SMN2 IC50
Protocol: (§1) The expression of a target mRNA was measured by detecting the formation of an exon-exon junction in the canonical transcript (CJ). A compound mediated exon-inclusion event was detected by observing an increase in formation of a new junction with an alternative exon (AJ). Real-time qPCR assays were used to detect these splicing switches and interrogate the potency of various compounds towards different target genes. A high-throughput real time quantitative PCR (RT-qPCR) assay was developed to measure these two isoforms of the mRNA (CJ and AJ) for an exemplary gene, HTT, together with a control housekeeping gene, GAPDH or GUSB or PPIA, used for normalization. Briefly, the A673 or K562 cell line was treated with various compounds described herein (e.g., compounds of Formula (I)). After treatment, the levels of the HTT mRNA targets were determined from each sample of cell lysate by cDNA synthesis followed by qPCR. The A673 cell line was cultured in DMEM with 10% FBS. Cells were diluted with full growth media and plated in a 96-well plate (15,000 cells in 100 ul media per well). The plate was incubated at 37° C. with 5% CO2 for 24 hours to allow cells to adhere. An 11-point 3-fold serial dilution of the compounds was made in DMSO then diluted in media in an intermediate plate. Compounds were transferred from the intermediate plate to the cell plate with the top dose at a final concentration of 10 uM in the well. Final DMSO concentration was kept at or below 0.25%. The cell plate was returned to the incubator at 37° C. with 5% CO2 for an additional 24 hours. The K562 cell line was cultured in IMDM with 10% FBS. For K562, cells were diluted with full growth media and plated in either a 96-well plate (50,000 cells in 50 uL media per well) or a 384-well plate (8,000-40,000 cells in 45 uL media per well). An 11-point 3-fold serial dilution of the compounds were made in DMSO then diluted in media in an intermediate plate. Compound was transferred from the intermediate plate to the cell plate with the top dose at a final concentration of 10 uM in the well. Final DMSO concentration was kept at or below 0.25%. Final volume was 100 uL for 96-well plate and 50 uL for 384-well plate. The cell plate was then placed in an incubator at 37° C. with 5% CO2 for 24 hours. The cells were then gently washed with 50 uL-100 uL cold PBS before proceeding to addition of lysis buffer. 30 uL-50 uL of room temperature lysis buffer with DNAse I (and optionally RNAsin) was added to each well. Cells were shaken/mixed thoroughly at room temperature for 5-10 minutes for lysis to take place and then 3 uL-5 uL of room temperature stop solution was added and wells were shaken/mixed again. After 2-5 minutes, the cell lysate plate was transferred to ice for RT-qPCR reaction setup. The lysates could also be frozen at −80° C. for later use. In some cases, a direct lysis buffer was used. An appropriate volume of 3× lysis buffer (10 mM Tris, 150 mM NaCl, 1.5%-2.5% Igepal and 0.1-1 U/uL RNAsin, pH 7.4) was directly added to either K562 or A673 cells in media and mixed by pipetting 3 times. The plates were then incubated at room temperature with shaking/rocking for 20-50 minutes to allow for lysis to take place. After this time, the cell lysate plate was transferred to ice to set up for the RT-qPCR reactions. The lysates could also be frozen at −80° C. for later use. To set up 10 uL RT-qPCR reactions, cell lysates were transferred to 384-well qPCR plates containing the master mix according to the table below. The plates were sealed, gently vortexed, and spun down before the run. The volumes were adjusted accordingly in some instances where the reaction was carried in 20 uL. The table below summarizes the components of the RT-qPCR reactions: The RT-qPCR reaction was performed using a QuantStudio (ThermoFisher) under the following fast cycling conditions. All samples and standards were analyzed at least in duplicate.

HTT CJ mRNA = assay: Gene panel canonical junction qPCR assay, HTT; conditions: decrease in CJ mRNA levels, gene panel; read-out: HTT IC50
Protocol: as §1

HTT mRNA = assay: Splicing assay (RT-qPCR) monitoring HTT canonical junction (CJ) and alternative junction (AJ) mRNA isoforms; conditions: A673 or K562 cells, 24 h treatment, top dose 10 uM
Protocol: Compounds described herein were used to modulate RNA transcript abundance in cells. The expression of a target mRNA was measured by detecting the formation of an exon-exon junction in the canonical transcript (CJ). A compound mediated exon-inclusion event was detected by observing an increase in formation of a new junction with an alternative exon (AJ). Real-time qPCR assays were used to detect these splicing switches and interrogate the potency of various compounds towards different target genes. A high-throughput real time quantitative PCR (RT-qPCR) assay was developed to measure these two isoforms of the mRNA (CJ and AJ) for an exemplary gene, HTT, together with a control housekeeping gene, GAPDH or GUSB or PPIA, used for normalization. Briefly, the A673 or K562 cell line was treated with various compounds described herein (e.g., compounds of Formula (I)). After treatment, the levels of the HTT mRNA targets were determined from each sample of cell lysate by cDNA synthesis followed by qPCR.
• Cells-to-CT 1-step kit: ThermoFisher A25602, Cells-to-CT lysis reagent: ThermoFisher 4391851C, TaqMan™ Fast Virus 1-Step Master Mix: ThermoFisher 4444436 • GAPDH: VIC-PL, ThermoFisher 4326317E (Assay: Hs99999905_m1)—used for K562/suspension cell lines • GUSB: VIC-PL, ThermoFisher 4326320E (Assay: Hs99999908_m1)—used for K562/suspension cell lines • PPIA: VIC-PL, ThermoFisher 4326316E (Assay: Hs99999904_m1) — used for A673/adherent cell lines
The A673 cell line was cultured in DMEM with 10% FBS. Cells were diluted with full growth media and plated in a 96-well plate (15,000 cells in 100 ul media per well). The plate was incubated at 37° C. with 5% CO2 for 24 hours to allow cells to adhere. An 11-point 3-fold serial dilution of the compounds was made in DMSO then diluted in media in an intermediate plate. Compounds were transferred from the intermediate plate to the cell plate with the top dose at a final concentration of 10 uM in the well. Final DMSO concentration was kept at or below 0.25%. The cell plate was returned to the incubator at 37° C. with 5% CO2 for an additional 24 hours.
The K562 cell line was cultured in IMDM with 10% FBS. For K562, cells were diluted with full growth media and plated in either a 96-well plate (50,000 cells in 50 uL media per well) or a 384-well plate (8,000-40,000 cells in 45 uL media per well). An 11-point 3-fold serial dilution of the compounds were made in DMSO then diluted in media in an intermediate plate. Compound was transferred from the intermediate plate to the cell plate with the top dose at a final concentration of 10 uM in the well. Final DMSO concentration was kept at or below 0.25%. Final volume was 100 uL for 96-well plate and 50 uL for 384-well plate. The cell plate was then placed in an incubator at 37° C. with 5% CO2 for 24 hours.
The cells were then gently washed with 50 uL-100 uL cold PBS before proceeding to addition of lysis buffer. 30 uL-50 uL of room temperature lysis buffer with DNAse I (and optionally RNAsin) was added to each well. Cells were shaken/mixed thoroughly at room temperature for 5-10 minutes for lysis to take place and then 3 uL-5 uL of room temperature stop solution was added and wells were shaken/mixed again. After 2-5 minutes, the cell lysate plate was transferred to ice for RT-qPCR reaction setup. The lysates could also be frozen at −80° C. for later use.
In some cases, a direct lysis buffer was used. An appropriate volume of 3× lysis buffer (10 mM Tris, 150 mM NaCl, 1.5%-2.5% Igepal and 0.1-1 U/uL RNAsin, pH 7.4) was directly added to either K562 or A673 cells in media and mixed by pipetting 3 times. The plates were then incubated at room temperature with shaking/rocking for 20-50 minutes to allow for lysis to take place. After this time, the cell lysate plate was transferred to ice to set up for the RT-qPCR reactions. The lysates could also be frozen at −80° C. for later use. […]

Target C CJ mRNA = assay: Gene panel canonical junction qPCR assay, Target C; conditions: decrease in CJ mRNA levels, gene panel; read-out: Target C IC50
Protocol: as §1

[1] = decrease in CJ mRNA (50% response), read-out: HTT CJ AC50
[2] = increase in AJ mRNA (50% response), read-out: HTT AJ AC50

Cc1nc2c(F)cc(-c3ccc4c(=O)n(C5CCNCC5)ncc4c3)cc2s1 [Compound 253]
IC50 (SMN2 CJ mRNA): 100 to 1000 nM
IC50 (HTT CJ mRNA): 1000 to 10000 nM
AC50 (HTT mRNA; [1]): 1000 to 10000 nM
AC50 (HTT mRNA; [2]): 1000 to 10000 nM
IC50 (Target C CJ mRNA): 1000 to 10000 nM

Cc1cn2nc(-c3ccc4c(c3)CCN(C3CCN(C)CC3)C4=O)cc(C)c2n1 [Compound 268]
IC50 (SMN2 CJ mRNA): < 100 nM
IC50 (HTT CJ mRNA): 1000 to 10000 nM
AC50 (HTT mRNA; [1]): 1000 to 10000 nM
AC50 (HTT mRNA; [2]): 1000 to 10000 nM
IC50 (Target C CJ mRNA): > 10000 nM

Cc1cn2nc(-c3ccc4c(c3)CCN(C3CCNCC3)C4=O)cc2c(C)n1 [Compound 223]
IC50 (SMN2 CJ mRNA): 100 to 1000 nM
IC50 (HTT CJ mRNA): 1000 to 10000 nM
AC50 (HTT mRNA; [1]): 1000 to 10000 nM
AC50 (HTT mRNA; [2]): 1000 to 10000 nM
IC50 (Target C CJ mRNA): > 10000 nM

Cc1cc(-c2ccc3c(=O)n(C4CCNCC4)cnc3c2F)cc2cn(C)nc12 [Compound 234, 7-(2,7-dimethyl-2H-indazol-5-yl)-8-fluoro-3-(piperidin-4-yl)quinazolin-4(3H)-one]
IC50 (SMN2 CJ mRNA): < 100 nM
IC50 (HTT CJ mRNA): 1000 to 10000 nM
AC50 (HTT mRNA; [1]): 1000 to 10000 nM
AC50 (HTT mRNA; [2]): 1000 to 10000 nM
IC50 (Target C CJ mRNA): > 10000 nM

Cc1cn2nc(-c3ccc4c(=O)n(C5CCN(C)C5)ncc4c3)cc(C)c2n1 (stereo not drawn) [Compound 271, 6-{2,8-dimethylimidazo[1,2-b]pyridazin-6-yl}-2-(1-methylpyrrolidin-3-yl)phthalazin-1-one]
IC50 (SMN2 CJ mRNA): 100 to 1000 nM
IC50 (HTT CJ mRNA): 1000 to 10000 nM
AC50 (HTT mRNA; [1]): 1000 to 10000 nM
AC50 (HTT mRNA; [2]): 1000 to 10000 nM
IC50 (Target C CJ mRNA): 1000 to 10000 nM

CN1CCN(c2ccc3nc(-c4ccc5nn(C)cc5c4)[nH]c(=O)c3c2)CC1 [Compound 108, 2-(2-methyl-2H-indazol-5-yl)-6-(4-methylpiperazin-1-yl)quinazolin-4(3H)-one]
IC50 (SMN2 CJ mRNA): 1000 to 10000 nM
IC50 (HTT CJ mRNA): > 10000 nM
AC50 (HTT mRNA; [1]): > 10000 nM
AC50 (HTT mRNA; [2]): > 10000 nM
IC50 (Target C CJ mRNA): 1000 to 10000 nM

Cc1cc(-c2cc(F)c3c(=O)n(C4CCN(C)CC4)cnc3c2)cc2cn(C)nc12 [Compound 233, 7-(2,7-dimethyl-2H-indazol-5-yl)-5-fluoro-3-(1-methylpiperidin-4-yl)quinazolin-4(3H)-one]
IC50 (SMN2 CJ mRNA): < 100 nM
IC50 (HTT CJ mRNA): 100 to 1000 nM
AC50 (HTT mRNA; [1]): 100 to 1000 nM
AC50 (HTT mRNA; [2]): 100 to 1000 nM
IC50 (Target C CJ mRNA): 1000 to 10000 nM

Cc1cn2nc(-c3ccc4c(=O)n(C5CCNCC5)ncc4c3)nc2c(C)n1 [Compound 259]
IC50 (SMN2 CJ mRNA): 100 to 1000 nM
IC50 (HTT CJ mRNA): 100 to 1000 nM
AC50 (HTT mRNA; [1]): 100 to 1000 nM
AC50 (HTT mRNA; [2]): 100 to 1000 nM
IC50 (Target C CJ mRNA): 100 to 1000 nM

Cc1nc2c(F)cc(-c3ccc4c(c3)CCN(C3CCNCC3)C4=O)cc2s1 [Compound 226]
IC50 (SMN2 CJ mRNA): 100 to 1000 nM
IC50 (HTT CJ mRNA): > 10000 nM
AC50 (HTT mRNA; [1]): > 10000 nM
AC50 (HTT mRNA; [2]): > 10000 nM
IC50 (Target C CJ mRNA): > 10000 nM

CN1CCC(Nc2ccc3c(=O)n(-c4ccc5cn(C)nc5c4)cnc3c2)CC1 [Compound 203, 3-(2-methyl-2H-indazol-6-yl)-7-((1-methylpiperidin-4-yl)amino)quinazolin-4(3H)-one]
IC50 (SMN2 CJ mRNA): > 10000 nM
IC50 (HTT CJ mRNA): > 10000 nM
AC50 (HTT mRNA; [1]): > 10000 nM
AC50 (HTT mRNA; [2]): > 10000 nM
IC50 (Target C CJ mRNA): > 10000 nM

CCN1CCC(N2CCc3cc(-c4cc(C)c5nc(C)cn5n4)ccc3C2=O)CC1 [Compound 270]
IC50 (SMN2 CJ mRNA): 100 to 1000 nM
IC50 (HTT CJ mRNA): 1000 to 10000 nM
AC50 (HTT mRNA; [1]): 1000 to 10000 nM
AC50 (HTT mRNA; [2]): 1000 to 10000 nM
IC50 (Target C CJ mRNA): > 10000 nM

Cc1cn2nc(-c3ccc4c(=O)n([C@@H]5CCN[C@H](C)C5)ncc4c3)cc(C)c2n1 [Compound 272]
IC50 (SMN2 CJ mRNA): < 100 nM
IC50 (HTT CJ mRNA): < 100 nM
AC50 (HTT mRNA; [1]): < 100 nM
AC50 (HTT mRNA; [2]): 100 to 1000 nM
IC50 (Target C CJ mRNA): 100 to 1000 nM
